Experimental data taken from EP1640447A1, “BIOACTIVE PEPTIDE-PRODUCING STRAINS OF i ENTEROCOCCUS FAECALIS /i , BIOACTIVE PEPTIDES AND APPLICATIONS THEREOF” (Grupo Leche Pascual S.A., priority 2003, dated 2004).
Marks after values point to notes of the source that are not given here.

Tests used:
Wistar-Kyoto rats (WKY) = test: Blood pressure (tail cuff) after acute intragastric administration in normotensive Wistar-Kyoto rats; format: in vivo; conditions: whey 5 mL/kg, Captopril 50 mg/kg, LSD test at each time
Protocol: Male SHR and WKY rats of 17-20 weeks of age and weight comprised between 250 and 300 g were used, obtained from Charles River Laboratories Espana S.A.. The rats were kept at a stable ambient temperature of 23°C and with 12 hour light-dark cycles, taking water and food at will. The measurement of blood pressure in these animals was carried out by means of a modification of the tail cuff technique, originally disclosed by Buñag (Buñag RD. 1973. J Appl Physiol 34:79). This technique usually allows obtaining only systolic blood pressure (SBP) measurements; however, the equipment used in this study (Le50001 Letica model) allows differentiating the SBP and the diastolic blood pressure (DBP) of the animals, as it automatically provides the digital value of both parameters. For this reason the modification of the SBP and the DBP produced by the acute administration of the fermented milks and the peptides were tested in this study. Before placing the cuff on the tails of the rats, these were exposed to a temperature close to 30°C in order to facilitate the dilation of the caudal artery, and they were lightly anaesthetized with diethyl ether according to the process disclosed by Dietz et al. (Dietz R, Schömig A, Haebara H et al. 1978. Circ Res 43: I98-I106) in order to minimize the effect of stress on the measurement. […]

[1] = tested on: spontaneously hypertensive rats (SHR); test: Blood pressure (tail cuff) after acute intragastric administration in spontaneously hypertensive rats; format: in vivo; conditions: Captopril 50 mg/kg; for variation of diastolic blood pressure / variation of systolic blood pressure: mean ± standard error
Protocol: Male SHR and WKY rats of 17-20 weeks of age and weight comprised between 250 and 300 g were used, obtained from Charles River Laboratories Espana S.A.. The rats were kept at a stable ambient temperature of 23°C and with 12 hour light-dark cycles, taking water and food at will. The measurement of blood pressure in these animals was carried out by means of a modification of the tail cuff technique, originally disclosed by Buñag (Buñag RD. 1973. J Appl Physiol 34:79). This technique usually allows obtaining only systolic blood pressure (SBP) measurements; however, the equipment used in this study (Le50001 Letica model) allows differentiating the SBP and the diastolic blood pressure (DBP) of the animals, as it automatically provides the digital value of both parameters. For this reason the modification of the SBP and the DBP produced by the acute administration of the fermented milks and the peptides were tested in this study. Before placing the cuff on the tails of the rats, these were exposed to a temperature close to 30°C in order to facilitate the dilation of the caudal artery, and they were lightly anaesthetized with diethyl ether according to the process disclosed by Dietz et al. (Dietz R, Schömig A, Haebara H et al. 1978. Circ Res 43: I98-I106) in order to minimize the effect of stress on the measurement. Furthermore, in order to ensure the reliability of the measurement, the animals were familiarized with the process 2 weeks prior to performing the test in question.
The administration of the products to be tested was performed by means of intragastric probe in a time margin comprised between 9 and 10 am. The SHR rats used for the study had at that time SBP and DBP values comprised respectively between 240 and 290 mm Hg, and between 200 and 250 mm Hg. The WKY rats used for the study had at that time SBP and DBP values comprised respectively between 160 and 200 mm Hg, and between 100 and 140 mm Hg. SBP and DBP measurements were taken periodically in the animals, every 2 hours, up to 8 hours post-administration of the products to be tested; an additional measurement of both variables (SBP and DBP) was taken 24 hours after administration of said products.
In the case of the fermented milks, the supernatant (whey) obtained by centrifugation at 20,000 x g for 10 minutes of the milk fermented and pasteurized at 75°C for 1 minute following the process described in Example 2 was used as an administration product. From the corresponding supernatant a single administration of 5 mL/kg of animal body weight was used.
In the tests with peptide SEQ. ID. NO: 1 a single administration was also performed, and the dose used (2 mg/kg) was equivalent in ACEI activity units to the 5 mL/kg dose of supernatant of the milks fermented by E. faecalis CECT 5727, E. faecalis CECT 5728, E. faecalis CECT 5826 and E. faecalis CECT 5827. […] The most significant results were obtained with the peptide identified by SEQ. ID. NO: 1.
As a negative control (to establish the circadian variation of the SBP and the DBP in probed rats) the measurements obtained in rats that were administered 1 mL of water by intragastric probe were used. As a positive control (to establish the effect on the SBP and the DBP of a prototype ACEI drug, such as Captopril) the measurements of […] obtained in that were administered 50 mg /kg of Captopril by intragastric probe were used. This dose of Captopril was administered to each rat in a volume of 1 mL.
The results obtained were grouped and the mean ± standard error of the mean (SEM) for a minimum of 7 homogeneous tests was obtained. The data from treated animals was contrasted to one another and with the data considered as negative control. […]

[2] = Time 2 h after single intragastric administration, whey 5 mL/kg
[3] = Time 4 h after single intragastric administration, whey 5 mL/kg
[4] = Time 6 h after single intragastric administration, whey 5 mL/kg
[5] = Time 8 h after single intragastric administration, whey 5 mL/kg
[6] = Time 24 h after single intragastric administration, whey 5 mL/kg
[7] = single intragastric administration, whey 5 mL/kg, peptide 2 mg/kg

## C[C@H](CS)C(=O)N1CCC[C@H]1C(=O)O [Captopril]
Wistar-Kyoto rats (WKY)
  changes in DBP: no significant differences
  changes in SBP: no significant differences
[1]; peptide 2 mg/kg, intragastric
  time after administration of maximum reduction / smallest values of DBP: 4 h
[1]; whey 5 mL/kg, peptide 2 mg/kg, intragastric
  time after administration of maximum reduction / smallest values of SBP: 6 h
[1]; [2]
  variation of diastolic blood pressure: -28.29±2.40^a
  variation of systolic blood pressure: -36.08±4.52^a
[1]; [3]
  variation of diastolic blood pressure: -34.90±5.34^a
  variation of systolic blood pressure: -51.98±5.36^a
[1]; [4]
  variation of diastolic blood pressure: -28.63±5.77^a
  variation of systolic blood pressure: -54.19±5.11^a
[1]; [5]
  variation of diastolic blood pressure: -26.67±7.94^a
  variation of systolic blood pressure: -35.44±4.70^a
[1]; [6]
  variation of diastolic blood pressure: 1.37±1.02^a
  variation of systolic blood pressure: 1.23±1.49^a
[1]; [7]
  reduction in DBP (in words): pronounced reduction
  reduction in SBP (in words): pronounced reduction
